Patent publication US12473291B2 (priority 2019, dated 2025)

Assays:
KM mice = assay: animal or person; format: in vivo; details: for 2ED50 duration / 2ED50 recovery time / Quality of recovery: KM mice; for 2ED50 duration / 2ED50 recovery time: single tail vein injection at 2×ED50; for 2ED50 duration: time from disappearance to recovery of righting reflex; for 2ED50 recovery time: time from recovery of righting reflex to free crawling; for ED50: Mus musculus, KM mice (male, 18-22 g), injection via the tail vein, disappearance of righting reflex, read-out: ED50; for Quality of recovery: tail vein injection
SD rats = assay: animal or person; format: in vivo; details: for ED50: Rattus norvegicus, SD rats (male, 220-300 g), injection via the tail vein, disappearance of righting reflex, read-out: ED50; for 2ED50 duration / 2ED50 recovery time / Quality of recovery: SD rats; for 2ED50 duration / 2ED50 recovery time: single tail vein injection at 2×ED50; for 2ED50 duration: time from disappearance to recovery of righting reflex; for 2ED50 recovery time: time from recovery of righting reflex to free crawling; for Quality of recovery: tail vein injection

For CCOC(=O)C1(OC(=O)CC[C@@H]2N=C(c3ccccn3)c3cc(Br)ccc3-n3c(C)cnc32)CC1 [Example 59, Ethyl 1-((3-((4S)-8-bromo-1-methyl-6-(pyridine-2-yl)-4H-benzo[f]imidazo [1,2-a][1,4]diaza-4-yl)propionyl)oxy) cyclopropane-1-carboxylate], the 2ED50 duration (KM mice) was 2.77 min, the 2ED50 recovery time (KM mice) was 1.38 min and the ED50 (KM mice) was 13.8 mg/kg. For the same molecule, the “duration and recovery time compared with remimazolam” value (KM mice; mice, tail vein, in words) was “significantly shorter”, the “effective dose compared with remimazolam” value (KM mice; mice, tail vein, in words) was “significantly lower” and the ED50 (SD rats) was 1.76 mg/kg. For the same molecule, the “2ED50 duration” value (SD rats) was 5.02 min, the 2ED50 recovery time (SD rats) was 2.51 min and the Quality of recovery (SD rats) was “++ (“++” means 1-3 min)”. For the same molecule, the “duration and recovery time compared with remimazolam” value (SD rats; rats, tail vein, in words) was “significantly shorter” and the “effective dose compared with remimazolam” value (SD rats; rats, tail vein, in words) was “significantly lower”.
COC(=O)C(C)OC(=O)CC[C@@H]1N=C(c2ccccn2)c2cc(Br)ccc2-n2c(C)cnc21 (some centres unmarked) [Example 60] was tested, and the 2ED50 duration (KM mice) was 2.46 min, the 2ED50 recovery time (KM mice) was 1.47 min and the Quality of recovery (KM mice) was “++ (“++” means 1-3 min)”. For the same molecule, the ED50 (KM mice) was 22.5 mg/kg, the ED50 (SD rats) was 3.5 mg/kg and the “2ED50 duration” value (SD rats) was 2.12 min. For the same molecule, the 2ED50 recovery time (SD rats) was 2.14 min and the Quality of recovery (SD rats) was “+++ (“+++” means 3-5 min)”.
For CCOC(=O)C(C)OC(=O)CC[C@@H]1N=C(c2ccccn2)c2cc(Br)ccc2-n2c(C)cnc21 (some centres unmarked) [Example 61], the 2ED50 duration (KM mice) was 3.01 min, the 2ED50 recovery time (KM mice) was 1.58 min and the Quality of recovery (KM mice) was “+++ (“+++” means 3-5 min)”. For the same molecule, the ED50 (KM mice) was 29.9 mg/kg, the ED50 (SD rats) was 2.7 mg/kg and the “2ED50 duration” value (SD rats) was 1.21 min. For the same molecule, the 2ED50 recovery time (SD rats) was 2.01 min and the Quality of recovery (SD rats) was “++ (“++” means 1-3 min)”.
For COC(=O)C(C)(C)OC(=O)CC[C@@H]1N=C(c2ccccn2)c2cc(Br)ccc2-n2c(C)cnc21 [Example 62, Methyl 2-((3-((4S)-8-bromo-1-methyl-6-(pyridine-2-yl)-4H-benzo[f]imidazo [1,2-a][1,4]diaza-4-yl)propionyl)oxy)-2-methylpropionate], the 2ED50 duration (KM mice) was 3.23 min, the 2ED50 recovery time (KM mice) was 1.27 min and the Quality of recovery (KM mice) was “+++ (“+++” means 3-5 min)”. For the same molecule, the ED50 (KM mice) was 13.5 mg/kg, the ED50 (SD rats) was 1.3 mg/kg and the “2ED50 duration” value (SD rats) was 1.08 min. For the same molecule, the 2ED50 recovery time (SD rats) was 2.14 min and the Quality of recovery (SD rats) was “+++ (“+++” means 3-5 min)”.
CCc1c(Br)cc2c(c1Cl)-n1c(C)cnc1[C@H](CCC(=O)OC(C)(CC)SC(=O)OC)N=C2c1ccccn1 (some centres unmarked) [Example 63] was tested, and the 2ED50 duration (KM mice) was 3.14 min, the 2ED50 recovery time (KM mice) was 2.03 min and the Quality of recovery (KM mice) was “++ (“++” means 1-3 min)”. For the same molecule, the ED50 (KM mice) was 29.8 mg/kg, the ED50 (SD rats) was 3.5 mg/kg and the “2ED50 duration” value (SD rats) was 2.03 min. The 2ED50 recovery time (SD rats) was 2.09 min and the Quality of recovery (SD rats) was “++ (“++” means 1-3 min)”.
Cc1cnc2n1-c1cc(Br)c(Br)cc1C(c1ccccn1)=N[C@H]2CCC(=O)OC1(C(=O)OOC2CC(Cl)C2)CC1 (some centres unmarked) [Example 64] was tested, and the 2ED50 duration (KM mice) was 3.09 min, the 2ED50 recovery time (KM mice) was 2.12 min and the Quality of recovery (KM mice) was “+++ (“+++” means 3-5 min)”. The ED50 (KM mice) was 24.1 mg/kg, the ED50 (SD rats) was 2.7 mg/kg and the “2ED50 duration” value (SD rats) was 3.15 min. The 2ED50 recovery time (SD rats) was 2.18 min and the Quality of recovery (SD rats) was “++ (“++” means 1-3 min)”.
In the case of CCOC(CCC(C)(C)OC(=O)CC[C@@H]1N=C(c2ccccn2)c2cc(Br)cc(Cl)c2-n2c(C)cnc21)C(=O)OC (stereo partly drawn) [Example 65, Methyl 5-((3-((4S)-8-bromo-10-chloro-1-methyl-6-(pyridine-2-yl)-4H-benzo [f]imidazo[1,2-a][1,4]diazapin-4-yl)propionyl)oxy)-2-ethoxy-5-methylcaproate], the 2ED50 duration (KM mice) is reported as 3.4 min, the 2ED50 recovery time (KM mice) is reported as 2.04 min and the Quality of recovery (KM mice) is reported as “++ (“++” means 1-3 min)”. The ED50 (KM mice) was 31.2 mg/kg, the ED50 (SD rats) was 6.3 mg/kg and the “2ED50 duration” value (SD rats) was 3.25 min. For the same molecule, the 2ED50 recovery time (SD rats) was 2.29 min and the Quality of recovery (SD rats) was “++++ (“++++” means 5-10 min)”.
